Experiments:
Format in all cases: in vivo
Sunflower [1] = test: Test C preemergence; details: Rate 500 g/ha, visual evaluation after 12 to 14 days
[2] = test system: barnyardgrass (Echinochloa crus-galli); test: Test C flooded paddy test; details: for Barnyardgrass plant response rating: Flooded Paddy, scale 0 to 100, 0 no effect, 100 complete control; for Plant response rating, Barnyardgrass: flooded paddy test, scale 0 to 100 (0 no effect, 100 complete control)
Procedure, shortened: (§1)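 Visual injury score, 0 (no effect) to 100 (complete control), relative to controls. Paddy plants treated at 2-leaf stage; greenhouse hold 12–14 d before rating.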

rice (Oryza saliva) = test: Test C flooded paddy test; details: for Rice plant response rating: Flooded Paddy, scale 0 to 100, 0 no effect, 100 complete control; for Plant response rating, Rice: flooded paddy test, scale 0 to 100 (0 no effect, 100 complete control)
Procedure, shortened: as §1

[3] = test system: velvetleaf (Abutilon theophrasti); test: Test C preemergence
Procedure, shortened: (§2)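 Seeds are planted and treated before emergence; for the postemergence test, plants at 1- to 4-leaf stage (2–18 cm) receive the same formulation, a solvent blend containing surfactant. Plants stay in the greenhouse 12–14 days, then response is scored visually from 0 (none) to 100 (complete control).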

[4] = test system: crabgrass (Digitaria sanguinalis); test: Test C preemergence
Procedure, shortened: as §2

soybean (Glycine max) = test: Test C preemergence
Procedure, shortened: as §2

[5] = test system: cocklebur (Xanthium strumarium); test: Test C preemergence
Procedure, shortened: as §2

[6] = test system: goosegrass (Eleusine indica); test: Test C preemergence
Procedure, shortened: as §2

[7] = test system: giant foxtail (Setaria faberii); test: Test C preemergence
Procedure, shortened: as §2

[8] = test system: johnsongrass (Sorghum halepense); test: Test C preemergence
Procedure, shortened: as §2

[9] = test system: woolly cupgrass (Eriochloa villosa); test: Test C preemergence
Procedure, shortened: as §2

[10] = test system: morningglory (Ipomoea hederacea); test: Test C preemergence
Procedure, shortened: as §2

kochia (Kochia scoparia) = test: Test C preemergence
Procedure, shortened: as §2

[11] = test system: common ragweed (Ambrosia elatior); test: Test C preemergence
Procedure, shortened: as §2

corn (Zea mays) = test: Test C preemergence
Procedure, shortened: as §2

[12] = test system: yellow nutsedge (Cyperus esculentus); test: Test C preemergence
Procedure, shortened: as §2

[13] = test system: bermudagrass (Cynodon dactylon); test: Test C preemergence
Procedure, shortened: as §2

[14] = test system: lambsquarters (Chenopodium album); test: Test C preemergence
Procedure, shortened: as §2

Nightshade = test: Test C preemergence
[15] = test system: Surinam grass (Brachiaria decumbens); test: Test C preemergence
Procedure, shortened: as §2

[16] = test system: pigweed (Amaranthus retroflexus); test: Test C preemergence
Procedure, shortened: as §2

Sunflower [17] = test: Test C preemergence; details: Rate 125 g/ha; scale 0 to 100, 0 no effect, 100 complete control
[18] = Rate 125 g/ha, scale 0 to 100, 0 no effect, 100 complete control
[19] = preemergence, Rate 62 g/ha, scale 0 to 100
[20] = preemergence, Rate 500 g/ha, visual evaluation after 12 to 14 days
[21] = preemergence, Rate 250 g/ha, scale 0 to 100, 0 no effect, 100 complete control

## CCC(C)c1ccn(C2CCN(c3cccc(OC)c3)C2=O)n1 (centres unmarked) [Compound 95]
Sunflower [1]
  Plant response rating (0 to 100), Sunflower: 10
[2]; Rate 250 g/ha
  Barnyardgrass plant response rating: 100
[2]; Rate 500 g/ha
  Barnyardgrass plant response rating: 100
[2]; Rate 62 g/ha
  Plant response rating, Barnyardgrass: 70
[2]; Rate 125 g/ha
  Plant response rating, Barnyardgrass: 70
Rice (Oryza saliva); Rate 250 g/ha
  Rice plant response rating: 70
Rice (Oryza saliva); Rate 500 g/ha
  Rice plant response rating: 90
Rice (Oryza saliva); Rate 62 g/ha
  Plant response rating, Rice: 0
Rice (Oryza saliva); Rate 125 g/ha
  Plant response rating, Rice: 20
[3]; [18]
  Plant response rating, Velvetleaf: 0
[3]; [19]
  Plant response rating, Velvetleaf: 0
[3]; [20]
  Plant response rating (0 to 100), Velvetleaf: 0
[3]; [21]
  Plant response rating, Velvetleaf: 0
[4]; [18]
  Plant response rating, Crabgrass: 100
[4]; [19]
  Plant response rating, Crabgrass: 100
[4]; [20]
  Plant response rating (0 to 100), Crabgrass: 100
[4]; [21]
  Plant response rating, Crabgrass: 100
Soybean (Glycine max); [18]
  Plant response rating, Soybean: 0
Soybean (Glycine max); [19]
  Plant response rating, Soybean: 0
Soybean (Glycine max); [20]
  Plant response rating (0 to 100), Soybean: 30
Soybean (Glycine max); [21]
  Plant response rating, Soybean: 0
[5]; [18]
  Plant response rating, Cocklebur: 0
[5]; [19]
  Plant response rating, Cocklebur: 0
[5]; [20]
  Plant response rating (0 to 100), Cocklebur: 0
[5]; [21]
  Plant response rating, Cocklebur: 0
[6]; [18]
  Plant response rating, Goosegrass: 100
[6]; [19]
  Plant response rating, Goosegrass: 100
[6]; [20]
  Plant response rating (0 to 100), Goosegrass: 100
[6]; [21]
  Plant response rating, Goosegrass: 100
[7]; [18]
  Plant response rating, Foxtail, Giant: 0
[7]; [19]
  Plant response rating, Foxtail, Giant: 0
[7]; [20]
  Plant response rating (0 to 100), Foxtail, Giant: 100
[7]; [21]
  Plant response rating, Foxtail, Giant: 0
[8]; [18]
  Plant response rating, Johnsongrass: 30
[8]; [19]
  Plant response rating, Johnsongrass: 30
[8]; [20]
  Plant response rating (0 to 100), Johnsongrass: 90
[8]; [21]
  Plant response rating, Johnsongrass: 60
[9]; [18]
  Plant response rating, Cupgrass, Woolly: 100
[9]; [19]
  Plant response rating, Cupgrass, Woolly: 50
[9]; [20]
  Plant response rating (0 to 100), Cupgrass, Woolly: 100
[9]; [21]
  Plant response rating, Cupgrass, Woolly: 100
[10]; [18]
  Plant response rating, Morningglory: 0
[10]; [19]
  Plant response rating, Morningglory: 0
[10]; [20]
  Plant response rating (0 to 100), Morningglory: 0
[10]; [21]
  Plant response rating, Morningglory: 0
Kochia (Kochia scoparia); [18]
  Plant response rating, Kochia: 100
Kochia (Kochia scoparia); [19]
  Plant response rating, Kochia: 100
Kochia (Kochia scoparia); [20]
  Plant response rating (0 to 100), Kochia: 100
Kochia (Kochia scoparia); [21]
  Plant response rating, Kochia: 100
[11]; [18]
  Plant response rating, Ragweed, Common: 0
[11]; [19]
  Plant response rating, Ragweed, Common: 0
[11]; [20]
  Plant response rating (0 to 100), Ragweed, Common: 10
[11]; [21]
  Plant response rating, Ragweed, Common: 0
Corn (Zea mays); [18]
  Plant response rating, Corn: 10
Corn (Zea mays); [19]
  Plant response rating, Corn: 10
Corn (Zea mays); [20]
  Plant response rating (0 to 100), Corn: 40
Corn (Zea mays); [21]
  Plant response rating, Corn: 40
[12]; [18]
  Plant response rating, Nutsedge: 0
[12]; [19]
  Plant response rating, Nutsedge: 0
[12]; [20]
  Plant response rating (0 to 100), Nutsedge: 70
[13]; [18]
  Plant response rating, Bermudagrass: 100
[13]; [19]
  Plant response rating, Bermudagrass: 100
[13]; [20]
  Plant response rating (0 to 100 where 0 is no effect and 100 is complete control), Bermudagrass: 100
[13]; [21]
  Plant response rating, Bermudagrass: 100
[14]; [18]
  Plant response rating, Lambsquarters: 100
[14]; [19]
  Plant response rating, Lambsquarters: 100
[14]; [20]
  Plant response rating (0 to 100), Lambsquarters: 100
[14]; [21]
  Plant response rating, Lambsquarters: 100
Nightshade; Rate 62 g/ha, scale 0 to 100
  Plant response rating, Nightshade: 0
Nightshade; [18]
  Plant response rating, Nightshade: 0
Nightshade; Rate 250 g/ha, scale 0 to 100, 0 no effect, 100 complete control
  Plant response rating, Nightshade: 0
[15]; [18]
  Plant response rating, Surinam grass: 40
[15]; [19]
  Plant response rating, Surinam grass: 40
[15]; [20]
  Plant response rating (0 to 100), Surinam grass: 100
[15]; [21]
  Plant response rating, Surinam grass: 50
[16]; [18]
  Plant response rating, Pigweed: 0
[16]; [19]
  Plant response rating, Pigweed: 100
[16]; [20]
  Plant response rating (0 to 100), Pigweed: 60
[16]; [21]
  Plant response rating, Pigweed: 0
Sunflower [17]
  Plant response rating, Sunflower: 0

Source: US7138361B2, “Herbicidal heterocycles” (E. I. du Pont de Nemours and Company, priority 2000, dated 2006)
